Reference: patent US8846669B2, “Oxazolidinone derivative and medical composition containing same” (Legochem Biosciences, Inc., priority 2011, dated 2014)
Converted amounts (≈) assume the structure as drawn. Read-outs that look alike come from different tables or passages of the source.

Experiments:
Experiment in all cases: In vitro antibacterial activity, broth microdilution MIC90
Type in all cases: cell-based
[1] = test system: Vancomycin Resistant Enterococcus faecium
Procedure: (§1) MIC90 was measured by broth microdilution method based on CLSI standards [reference: Clinical and Laboratory Standards Institute Document. (2000) Methods for Dilution Antimicrobial Susceptibility Test for Bacteria that Grow Aerobically-Fifth Edition: M7-A5. CLSI, Villanova, Pa.].
(§2) Activities of 12 strains including Staphylococcus aureus, Methicillin Resistant Staphylococcus aureus, Staphylococcus epidermidis, Methicillin Resistant Staphylococcus epidermidis, Enterococcus faecalis, Vancomycin Resistant Enterococcus faecalis, Linezolid and Vancomycin Resistant Enterococcus faecalis, Enterococcus faecium, Vancomycin Resistant Enterococcus faecium, Linezolid and Vancomycin Resistant Enterococcus faecium, and Moraxella catarrhalis, were measured, and results are shown in Table 1 below.
(§3) The final concentration of test material in the antibacterial test was from 0.063 μg/mL (minimum) to 128 μg/mL (maximum), and the final concentration of DMSO used as an excipient was 2.5% (V/V). Linezolid represented by Formula B below (manufactured by Pfizer) was used as a control and bacterial activity thereof was compared with those of the test materials.

[2] = test system: Moraxella catarrhalis
Procedure: as §1, §2, §3

[3] = test system: Enterococcus faecium
Procedure: as §1, §2, §3

[4] = test system: Enterococcus faecalis
Procedure: as §1, §2, §3

[5] = test system: Staphylococcus epidermidis
Procedure: as §1, §2, §3

[6] = test system: Linezolid and Vancomycin Resistant Enterococcus faecium (strain 10)
Procedure: as §1, §2, §3

[7] = test system: Methicillin Resistant Staphylococcus aureus
Procedure: as §1, §2, §3

[8] = test system: Staphylococcus aureus
Procedure: as §1, §2, §3

[9] = test system: Vancomycin Resistant Enterococcus faecalis
Procedure: as §1, §2, §3

[10] = test system: Linezolid and Vancomycin Resistant Enterococcus faecalis
Procedure: as §1, §2, §3

[11] = test system: Linezolid and Vancomycin Resistant Enterococcus faecium (strain 11)
Procedure: as §1, §2, §3

[12] = test system: Methicillin Resistant Staphylococcus epidermidis
Procedure: as §1, §2, §3

| SMILES | MIC90 ([1]; Enterococcus faecium) | MIC90 ([2]; Moraxella catarrhalis) | MIC90 ([3]; Enterococcus faecium) | MIC90 ([4]; Enterococcus faecalis) | MIC90 ([5]; Staphylococcus epidermidis) | MIC90 ([6]; Enterococcus faecium) | MIC90 ([7]; Staphylococcus aureus) | MIC90 ([8]; Staphylococcus aureus) | MIC90 ([9]; Enterococcus faecalis) | MIC90 ([10]; Enterococcus faecalis) | MIC90 ([11]; Enterococcus faecium) | MIC90 ([12]; Staphylococcus epidermidis) | MIC90 ([1]; strain 9, E. faecium VanA) | MIC90 ([2]; strain 12, M. catarrhalis) | MIC90 ([3]; strain 8, E. faecium) | MIC90 ([4]; strain 5, E. faecalis) | MIC90 ([5]; strain 3, S. epidermidis) | MIC90 ([6]; strain 10, E. faecium VanA LR) | MIC90 ([7]; strain 2, S. aureus MR) | MIC90 ([8]; strain 1, S. aureus) | also measured |
| --- | --- | --- | --- | --- | --- | --- | --- | --- | --- | --- | --- | --- | --- | --- | --- | --- | --- | --- | --- | --- | --- |
| COC(=O)NC[C@H]1CN(c2ccc(-c3ccc(N4C=NN(C(=O)CO)CC4)nc3)c(F)c2)C(=O)O1 [Compound 25] | 0.5 µg/mL (≈ 1.03 µM) | 4 µg/mL (≈ 8.22 µM) | 0.25 µg/mL (≈ 0.514 µM) | 0.5 µg/mL (≈ 1.03 µM) | 0.25 µg/mL (≈ 0.514 µM) | 4 µg/mL (≈ 8.22 µM) | 0.5 µg/mL (≈ 1.03 µM) | 0.063 µg/mL (≈ 0.13 µM) | 0.5 µg/mL (≈ 1.03 µM) | 4 µg/mL (≈ 8.22 µM) | 2 µg/mL (≈ 4.11 µM) | 1 µg/mL (≈ 2.06 µM) |  |  |  |  |  |  |  |  |  |
| COC(=O)NC[C@H]1CN(c2ccc(-c3ccc(N4C=NOCC4)nc3)c(F)c2)C(=O)O1 [Compound 59] |  |  |  |  |  |  |  |  |  |  |  |  |  |  |  |  |  |  |  |  | MIC90 ([1]; Enterococcus faecium, strain 9, E. faecium VanA, read-out: MIC90): 0.25 µg/mL (≈ 0.582 µM); MIC90 ([2]; Moraxella catarrhalis, strain 12, M. catarrhalis, read-out: MIC90): 2 µg/mL (≈ 4.66 µM); MIC90 ([3]; Enterococcus faecium, strain 8, E. faecium, read-out: MIC90): 0.25 µg/mL (≈ 0.582 µM); MIC90 ([4]; Enterococcus faecalis, strain 5, E. faecalis, read-out: MIC90): 0.5 µg/mL (≈ 1.16 µM); MIC90 ([5]; Staphylococcus epidermidis, strain 3, S. epidermidis, read-out: MIC90): 0.25 µg/mL (≈ 0.582 µM); MIC90 ([6]; Enterococcus faecium, strain 10, E. faecium VanA LR, read-out: MIC90): 4 µg/mL (≈ 9.32 µM); MIC90 ([7]; Staphylococcus aureus, strain 2, S. aureus MR, read-out: MIC90): 0.5 µg/mL (≈ 1.16 µM); MIC90 ([8]; Staphylococcus aureus, strain 1, S. aureus, read-out: MIC90): 0.25 µg/mL (≈ 0.582 µM); MIC90 ([9]; Enterococcus faecalis, strain 6, E. faecalis VanA, read-out: MIC90): 0.5 µg/mL (≈ 1.16 µM); MIC90 ([10]; Enterococcus faecalis, strain 7, E. faecalis VanA LR, read-out: MIC90): 4 µg/mL (≈ 9.32 µM); MIC90 ([11]; Enterococcus faecium, strain 11, E. faecium VanA LR, read-out: MIC90): 4 µg/mL (≈ 9.32 µM); MIC90 ([12]; Staphylococcus epidermidis, strain 4, S. epidermidis MR, read-out: MIC90): 1 µg/mL (≈ 2.33 µM) |
| CCN1CCN(c2ccc(-c3ccc(N4C[C@H](CNC(C)=O)OC4=O)cc3F)cn2)C=N1 [Compound 4] | 0.5 µg/mL (≈ 1.14 µM) | 2 µg/mL (≈ 4.54 µM) | 0.5 µg/mL (≈ 1.14 µM) | 0.5 µg/mL (≈ 1.14 µM) | 0.5 µg/mL (≈ 1.14 µM) | 2 µg/mL (≈ 4.54 µM) | 1 µg/mL (≈ 2.27 µM) | 0.5 µg/mL (≈ 1.14 µM) | 0.5 µg/mL (≈ 1.14 µM) | 2 µg/mL (≈ 4.54 µM) | 2 µg/mL (≈ 4.54 µM) | 1 µg/mL (≈ 2.27 µM) |  |  |  |  |  |  |  |  |  |
| O=C1O[C@@H](Cn2ccnn2)CN1c1ccc(-c2ccc(N3C=NNCC3)nc2)c(F)c1 [Compound 30] | 0.5 µg/mL (≈ 1.18 µM) | 4 µg/mL (≈ 9.47 µM) | 0.25 µg/mL (≈ 0.592 µM) | 0.5 µg/mL (≈ 1.18 µM) | 0.5 µg/mL (≈ 1.18 µM) | 2 µg/mL (≈ 4.73 µM) | 1 µg/mL (≈ 2.37 µM) | 0.25 µg/mL (≈ 0.592 µM) | 1 µg/mL (≈ 2.37 µM) | 4 µg/mL (≈ 9.47 µM) | 2 µg/mL (≈ 4.73 µM) | 2 µg/mL (≈ 4.73 µM) |  |  |  |  |  |  |  |  |  |
| O=C(CO)N1CCN(c2ccc(-c3ccc(N4C[C@H](COc5ccon5)OC4=O)cc3F)cn2)C=N1 [Compound 46] |  |  |  |  |  |  |  |  |  |  |  |  | 2 µg/mL (≈ 4.03 µM) | >128 µg/mL | 0.5 µg/mL (≈ 1.01 µM) | 2 µg/mL (≈ 4.03 µM) | 0.5 µg/mL (≈ 1.01 µM) | 128 µg/mL (≈ 258 µM) | 0.5 µg/mL (≈ 1.01 µM) | 0.25 µg/mL (≈ 0.504 µM) | MIC90 ([9]; strain 6, E. faecalis VanA): 4 µg/mL (≈ 8.06 µM); MIC90 ([10]; strain 7, E. faecalis VanA LR): 128 µg/mL (≈ 258 µM); MIC90 ([11]; strain 11, E. faecium VanA LR): >128 µg/mL; MIC90 ([12]; strain 4, S. epidermidis MR): 32 µg/mL (≈ 64.5 µM) |
| O=C(C(O)CO)N1CCN(c2ccc(-c3ccc(N4C[C@H](CNc5ccon5)OC4=O)cc3F)cn2)C=N1 (stereo partly drawn) [Compound 43] |  |  |  |  |  |  |  |  |  |  |  |  | 0.5 µg/mL (≈ 0.951 µM) | 2 µg/mL (≈ 3.81 µM) | 0.25 µg/mL (≈ 0.476 µM) | 0.5 µg/mL (≈ 0.951 µM) | 1 µg/mL (≈ 1.9 µM) | 4 µg/mL (≈ 7.61 µM) | 0.5 µg/mL (≈ 0.951 µM) | 0.25 µg/mL (≈ 0.476 µM) | MIC90 ([9]; strain 6, E. faecalis VanA): 1 µg/mL (≈ 1.9 µM); MIC90 ([10]; strain 7, E. faecalis VanA LR): 2 µg/mL (≈ 3.81 µM); MIC90 ([11]; strain 11, E. faecium VanA LR): 4 µg/mL (≈ 7.61 µM); MIC90 ([12]; strain 4, S. epidermidis MR): 2 µg/mL (≈ 3.81 µM) |
| O=C1O[C@@H](CNc2ccon2)CN1c1ccc(-c2ccc(C3=NOCCN3)nc2)c(F)c1 [Compound 67] |  |  |  |  |  |  |  |  |  |  |  |  | 0.5 µg/mL (≈ 1.14 µM) | 1 µg/mL (≈ 2.28 µM) | 0.25 µg/mL (≈ 0.57 µM) | 0.5 µg/mL (≈ 1.14 µM) | 0.25 µg/mL (≈ 0.57 µM) | 2 µg/mL (≈ 4.56 µM) | 0.5 µg/mL (≈ 1.14 µM) | 0.25 µg/mL (≈ 0.57 µM) | MIC90 ([9]; strain 6, E. faecalis VanA): 0.5 µg/mL (≈ 1.14 µM); MIC90 ([10]; strain 7, E. faecalis VanA LR): 2 µg/mL (≈ 4.56 µM); MIC90 ([11]; strain 11, E. faecium VanA LR): 2 µg/mL (≈ 4.56 µM); MIC90 ([12]; strain 4, S. epidermidis MR): 0.5 µg/mL (≈ 1.14 µM) |
| CN1CCN(c2ccc(-c3ccc(N4C[C@H](COc5ccon5)OC4=O)cc3F)cn2)C=N1 [Compound 45] |  |  |  |  |  |  |  |  |  |  |  |  | 2 µg/mL (≈ 4.42 µM) | >128 µg/mL | 0.5 µg/mL (≈ 1.11 µM) | 2 µg/mL (≈ 4.42 µM) | 1 µg/mL (≈ 2.21 µM) | >128 µg/mL | 1 µg/mL (≈ 2.21 µM) | 0.5 µg/mL (≈ 1.11 µM) | MIC90 ([9]; strain 6, E. faecalis VanA): 4 µg/mL (≈ 8.84 µM); MIC90 ([10]; strain 7, E. faecalis VanA LR): >128 µg/mL; MIC90 ([11]; strain 11, E. faecium VanA LR): >128 µg/mL; MIC90 ([12]; strain 4, S. epidermidis MR): 4 µg/mL (≈ 8.84 µM) |
| CC(=O)NC[C@H]1CN(c2ccc(-c3ccc(N4C=NN(C(=O)COC(C)=O)CC4)nc3)c(F)c2)C(=O)O1 [Compound 12] | 0.25 µg/mL (≈ 0.488 µM) | 0.5 µg/mL (≈ 0.976 µM) | 0.063 µg/mL (≈ 0.123 µM) | 0.125 µg/mL (≈ 0.244 µM) | 0.125 µg/mL (≈ 0.244 µM) | 1 µg/mL (≈ 1.95 µM) | 0.25 µg/mL (≈ 0.488 µM) | 0.125 µg/mL (≈ 0.244 µM) | 0.25 µg/mL (≈ 0.488 µM) | 1 µg/mL (≈ 1.95 µM) | 1 µg/mL (≈ 1.95 µM) | 0.25 µg/mL (≈ 0.488 µM) |  |  |  |  |  |  |  |  |  |
